# The METLIN SMRT retention time set (Domingo-Almenara et al. 2019)
# Assay: gradient 5% acetonitrile 3 min, to 50% in 2 min, to 85% in 15 min, held 3 min, 100 µL/min
# Settings: column: Zorbax Extend-C18 2.1 x 50 mm; eluents: water / acetonitrile, 0.1% formic acid
# In short: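 The mobile phases were water and acetonitrile, each with 0.1% formic acid, pumped at 100 μL/min through a Zorbax Extend-C18 column (2.1 × 50 mm, 1.8 μm). Pure standards were injected as mixtures of ~100 molecules and detected by a quadrupole time-of-flight mass spectrometer in positive and negative ionization mode. Retention time came from computationally picked adduct peaks, each inspected by hand.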
row,RP-LC retention time,Compound
1,740 s,COC(=O)c1ccc(NC(=O)CC(C)S(=O)(=O)c2ccc3c(c2)NC(=O)CCS3)cc1 (configuration not stated)
2,809 s,COc1ccc(C)cc1NC(=O)C1CCN(S(=O)(=O)c2cc(C(=O)N3CCCC3)n(C)c2)CC1
3,921 s,COc1cccc(-c2ccc(=O)n(CCc3nc(-c4cccc(OC)c4OC)no3)n2)c1
4,733 s,O=C(NCC1CCOCC1)c1cccc(Br)c1
5,827 s,Cc1cc(Cl)ccc1NC(=O)N1C[C@H](c2nc(-c3cccnc3)no2)[C@@H](C)C1
6,679 s,O=C(Cn1cnc2nc(N3CCC(C(=O)NC4CC4)CC3)sc2c1=O)Nc1cccc(Cl)c1
7,878 s,CC(C)c1cccc(N2C=C(C(=O)N3CCOCC3)S(=O)(=O)c3ccccc32)c1
8,698 s,COc1ccc(CCNC(=O)CCn2c(=O)sc3ccccc32)cc1OC
9,784 s,O=C1CC(c2ccc(O)cc2)Oc2cc(O)cc(O)c21 (configuration not stated)
10,1110 s,CN(CC1CCCO1)c1nc(-c2ccc([N+](=O)[O-])cc2)cs1 (configuration not stated)
11,838 s,CN(CCCNC(=O)C1CCCN(c2ncc(-c3cccc(F)c3)cn2)C1)c1ccccc1 (configuration not stated)
12,931 s,Cc1ccc(-c2cn3ccn(-c4ccc(C)c(C)c4)c(=O)c3n2)cc1
13,582 s,Cc1cc(N2CCN(C(=O)c3ccc(C#N)cc3)CC2)nc2nnc(C)n12
14,870 s,COc1ccc(-c2noc(Cn3ccn(-c4cc(C)cc(C)c4)c(=O)c3=O)n2)cc1
15,886 s,CCc1cccc(C)c1Nc1c(-c2ccc(F)cc2)nc2ncccn12
16,746 s,Cc1ccn2c(Nc3ccccc3C)c(-c3ccc(N4CCOCC4)cc3)nc2c1
17,764 s,O=C(c1ccc(OCC2CCN(C(=O)C3CCCC3)CC2)cc1)N1CCOCC1
18,983 s,Cc1nc(N2CCOCC2)c2c(C(=O)N3CCN(c4cc(Cl)ccc4C)CC3)c(C)oc2n1

row,RP-LC retention time,Compound
1,785 s,COCC(C)NC(=O)CN1c2ccc(F)cc2-c2ccccc2S1(=O)=O (configuration not stated)
2,631 s,O=C(C1CC1)N1CCC(F)(C(=O)NCC2CC2)CC1
3,602 s,O=C(CN(CC1CCCO1)C(=O)c1cccc(Br)c1)N1CCNCC1 (configuration not stated)
4,673 s,COCCN1C(=O)CCc2cc(NC(=O)C3CCC3)ccc21
5,824 s,Cc1cccc(NC(=O)Cc2c(C)n(C)c3nc(-c4ccccc4)nn3c2=O)c1
6,1050 s,CCc1nc2cc(-c3noc(Cc4ccccc4F)n3)ccc2o1
7,899 s,O=C(C1=NN(Cc2ccc(F)cc2)c2cc(Cl)ccc2S1(=O)=O)N1CCOCC1
8,938 s,COc1cccc(-c2noc(Cn3cnc4c(oc5ccccc54)c3=O)n2)c1
9,596 s,CCN1CCN(c2nc(F)c3c(c2F)S(=O)(=O)CCN3CC2CCCO2)CC1 (configuration not stated)
10,750 s,CCCCCC(=O)Nc1cc(-c2nc3ccc(C)cc3[nH]2)ccc1C
11,961 s,COc1ccc(C)cc1NC(=O)c1nc(-c2cn(Cc3ccc(F)cc3)nn2)no1
12,798 s,C1=CC2(C=C1)OC21CCC2(C=CC3(C2)OC3C2CCCCC2)CC1 (configuration not stated)
13,871 s,Fc1ccc(-c2nc(-c3ccc(-n4ccnc4)nc3)no2)cc1F
14,715 s,COC(=O)c1c(C)[nH]c(C(=O)N2CCC(CC(=O)NCc3cccc(OC)c3)CC2)c1C
15,957 s,O=C(CSc1ncnc2c1[nH]c1ccc(Br)cc12)NC1CCCCC1
16,726 s,CCc1nncn1C1CCN(S(=O)(=O)c2cccc(Cl)c2)CC1
17,707 s,CCCCCCC(=O)OC1CC(C)(C)NC(C)(C)C1
18,702 s,COc1ccc(-c2cn3c(CC(=O)Nc4ccccc4)csc3n2)cc1OC

row,Compound,RP-LC retention time
1,CCn1cc(CCN2CCN(C(=O)Cc3cccs3)CC2)c2cccnc21,590 s
